Measured values: patent publication US20130236553A1, “Compositions and Methods for the Delivery of Therapeutics” (Board of Regents of the University of Nebraska, priority 2010, published 2013)

Columns and labels:
HIVADA = assay: Antiretroviral activities of RTV (p24 staining, RT activity) in HIVADA infected MDM; assay type: cell-based, HIV-1; conditions: 12 hours treatment, HIV challenge day 1, read 10 days after infection
Protocol: Drug-treated MDMs were infected with HIVADA at a multiplicity of infection of 0.01 infectious viral particles/cell (Gendelman et al. (1988) J. Exp. Med., 167:1428-1441) on day 1 after RTV-NP treatment. Following viral infection, cells were cultured for 10 days with half media exchanges every other day. Media samples were collected 10 days after infection for measurement of progeny virion production as assayed by reverse transcriptase (RT) activity (Kalter et al. (1991) J. Immunol., 146:3396-3404). Parallel analyses for expression of HIV p24 antigen in infected cells were performed by immunostaining using p24 mouse monoclonal Ab (Dako [CA, USA]) on the same day as media sampling.
In a 96-well plate, media samples (10 μl) were mixed with 10 μl of a solution containing 100 mM Tris-HCl (pH 7.9), 300 mM KCl, 10 mM dithiothreitol, 0.1% nonyl phenoxylpolyethoxylethanol-40 (NP-40) and water. […] Following incubation, 50 μl of cold 10% TCA was added to each well; the wells were harvested onto glass fiber filters, and the filters were assessed for tritiated thymidine triphosphate incorporation by β-scintillation spectroscopy using a TopCount NX™ (PerkinElmer Inc. [MA, USA]) (Kalter et al. (1991) J. Immunol., 146:3396-3404). […]

[1] = test system: a variety of HIV strains and host cell types; conditions: read-out: EC50 levels for anti-HIV activity; cited from earlier work
[2] = cited from earlier work
[3] = Plasma concentration after low dose SC injection of nanoparticle or free drug; assay type: in vivo, Mice; conditions: 10 mg/kg SC; for concentration at 0.25 hr / concentration at 1 hr / concentration at 3 hr / concentration at 6 hr / concentration at 10 hr / concentration at 24 hr / concentration at 48 hr / concentration at 96 hr / concentration at 168 hr / concentration at 336 hr: mouse, plasma, subcutaneous
Protocol: Mice were also administered nanoparticles or free drug at only 10 mg/kg by SC injection.

[4] = cited from earlier work; remark: listed apart in the source

Compound | protection against HIV infection (p24 staining, multinucleated giant cells) (HIVADA) | EC50 [1] | therapeutic human plasma levels [2] | concentration at 0.25 hr [3] | concentration at 1 hr [3] | concentration at 3 hr [3] | concentration at 6 hr [3] | concentration at 10 hr [3] | concentration at 24 hr [3] | concentration at 48 hr [3] | concentration at 96 hr [3] | concentration at 168 hr [3] | concentration at 336 hr ([3]; 336 hr) | solubility of free-base drug [4] | Plasma concentration, 336 hr ([3]; 336 hr) | minimum human therapeutic serum level ([2]; human serum)
CC(C)c1nc(CN(C)C(=O)N[C@H](C(=O)N[C@@H](Cc2ccccc2)C[C@H](O)[C@H](Cc2ccccc2)NC(=O)OCc2cncs2)C(C)C)cs1 [RTV, ritonavir] | no protection against infection | 35 to 200 nM | 3.5 to 9.6 µg/mL | 1080 ng/mL | 492 ng/mL | 710 ng/mL | 551 ng/mL | 69.1 ng/mL | 5.91 ng/mL | 2.36 ng/mL | 4.94 ng/mL | 2.21 ng/mL | 0 ng/mL |  |  | 
O=C1Nc2ccc(Cl)cc2[C@@](C#CC2CC2)(C(F)(F)F)O1 [EFV, efavirenz] |  | 1.7 to 25 nM | 1.8 to 4.1 µg/mL | 301 ng/mL | 124 ng/mL | 155 ng/mL | 213 ng/mL | 40 ng/mL | 7.1 ng/mL | 2.17 ng/mL | 2.99 ng/mL | 2.57 ng/mL |  | 9 µg/mL | <LLOQ | 
COC(=O)N[C@H](C(=O)N[C@@H](Cc1ccccc1)[C@@H](O)CN(Cc1ccc(-c2ccccn2)cc1)NC(=O)[C@@H](NC(=O)OC)C(C)(C)C)C(C)(C)C [ATV, atazanavir] |  | 2 to 5 nM | 0.3 to 2.2 µg/mL | 1150 ng/mL | 804 ng/mL | 2060 ng/mL | 2100 ng/mL | 639 ng/mL | 9.85 ng/mL | 4.38 ng/mL | 4.3 ng/mL | 1.74 ng/mL | 0 ng/mL | 4000 to 5000 µg/mL |  | 150 ng/mL
CC(C)(C)NC(=O)[C@@H]1CN(Cc2cccnc2)CCN1C[C@@H](O)C[C@@H](Cc1ccccc1)C(=O)N[C@H]1c2ccccc2C[C@H]1O [IDV, indinavir] |  | 5 to 29 nM |  |  |  |  |  |  |  |  |  |  |  |  |  | 
